Laboratory results published in patent US20250376469A1, “INDOLIZINE DERIVATIVES FOR TREATING TRPM3-MEDIATED DISORDERS” (Katholieke Universiteit Leuven, priority 2022, published 2025).

Biological target: T1, mouse TRPM3α2 (mTRPM3) ion channel (Mus musculus, UniProt J9SQF3)
T1 construct: expressed in transfected cells; host or cells: flip-in HEK293
Test: TRPM3 ion channel driven Ca2+ uptake (Fluo-4 AM assay, pregnenolone sulfate stimulated)
Assay type: cell-based
Conditions: TRPM3 overexpressing flip-in HEK293 cells, channel opened with pregnenolone sulfate (PS) 50 μM, 2.4 mM Ca2+
Method: In order to monitor the inhibition of the mouse TRPM3α2 (mTRPM3) ion channel by the compounds of the invention, a cellular system making use of an mTRPM3alpha2 or hTRPM3 overexpressing cell line (flip-in HEK293) was used. The TRPM3 channel was stimulated/opened with Pregnenolone sulfate (PS) (50 μM) which results in Ca^2+ influx.
For mTRPM3, the intracellular Ca^2+ was measured with a Calcium responsive dye, Fluor-4 AM ester (Invitrogen). Cells were cultured until a confluence of 80-90%, washed with Versene (Invitrogen) and detached from the surface by a short incubation with 0.05% Trypsin (Invitrogen). The trypsination process was stopped by the addition of complete cell culture medium (DMEM, glutamax, 10% FCS, NEAA, Pen-Strep). Cells were collected and resuspended in Krebs buffer without Calcium at RT.
Prior the cell seeding (±2000 cells/well into a black, 384 well plate (Greiner)) the diluted compound was added in the assay plate, together with the PS dissolved in Krebs buffer containing Calcium. […] Directly after cell addition the plates were read on an Envision fluorescence reader (Perkin Elmer) by an Excitation of 485 nm and emission at 535 nm.
Channel inhibition was calculated compared to a non-PS stimulated control versus a condition stimulated with PS (50 μM) with vehicle. The ability of a the compounds of the invention to inhibit this activity was determined as: Percentage inhibition=[1−((RFU determined for sample with test compound present−RFU determined for sample with positive control inhibitor) divided by (RFU determined in the presence of vehicle−RFU determined for sample with positive control inhibitor))]*100.
The activities of the Example compounds […] tested are depicted in the table below. The activity ranges A, B and C refer to IC50 values in the Fluo-4 AM assay as follows: […]

T1 sequence (J9SQF3 1-1709 isoform J9SQF3-12): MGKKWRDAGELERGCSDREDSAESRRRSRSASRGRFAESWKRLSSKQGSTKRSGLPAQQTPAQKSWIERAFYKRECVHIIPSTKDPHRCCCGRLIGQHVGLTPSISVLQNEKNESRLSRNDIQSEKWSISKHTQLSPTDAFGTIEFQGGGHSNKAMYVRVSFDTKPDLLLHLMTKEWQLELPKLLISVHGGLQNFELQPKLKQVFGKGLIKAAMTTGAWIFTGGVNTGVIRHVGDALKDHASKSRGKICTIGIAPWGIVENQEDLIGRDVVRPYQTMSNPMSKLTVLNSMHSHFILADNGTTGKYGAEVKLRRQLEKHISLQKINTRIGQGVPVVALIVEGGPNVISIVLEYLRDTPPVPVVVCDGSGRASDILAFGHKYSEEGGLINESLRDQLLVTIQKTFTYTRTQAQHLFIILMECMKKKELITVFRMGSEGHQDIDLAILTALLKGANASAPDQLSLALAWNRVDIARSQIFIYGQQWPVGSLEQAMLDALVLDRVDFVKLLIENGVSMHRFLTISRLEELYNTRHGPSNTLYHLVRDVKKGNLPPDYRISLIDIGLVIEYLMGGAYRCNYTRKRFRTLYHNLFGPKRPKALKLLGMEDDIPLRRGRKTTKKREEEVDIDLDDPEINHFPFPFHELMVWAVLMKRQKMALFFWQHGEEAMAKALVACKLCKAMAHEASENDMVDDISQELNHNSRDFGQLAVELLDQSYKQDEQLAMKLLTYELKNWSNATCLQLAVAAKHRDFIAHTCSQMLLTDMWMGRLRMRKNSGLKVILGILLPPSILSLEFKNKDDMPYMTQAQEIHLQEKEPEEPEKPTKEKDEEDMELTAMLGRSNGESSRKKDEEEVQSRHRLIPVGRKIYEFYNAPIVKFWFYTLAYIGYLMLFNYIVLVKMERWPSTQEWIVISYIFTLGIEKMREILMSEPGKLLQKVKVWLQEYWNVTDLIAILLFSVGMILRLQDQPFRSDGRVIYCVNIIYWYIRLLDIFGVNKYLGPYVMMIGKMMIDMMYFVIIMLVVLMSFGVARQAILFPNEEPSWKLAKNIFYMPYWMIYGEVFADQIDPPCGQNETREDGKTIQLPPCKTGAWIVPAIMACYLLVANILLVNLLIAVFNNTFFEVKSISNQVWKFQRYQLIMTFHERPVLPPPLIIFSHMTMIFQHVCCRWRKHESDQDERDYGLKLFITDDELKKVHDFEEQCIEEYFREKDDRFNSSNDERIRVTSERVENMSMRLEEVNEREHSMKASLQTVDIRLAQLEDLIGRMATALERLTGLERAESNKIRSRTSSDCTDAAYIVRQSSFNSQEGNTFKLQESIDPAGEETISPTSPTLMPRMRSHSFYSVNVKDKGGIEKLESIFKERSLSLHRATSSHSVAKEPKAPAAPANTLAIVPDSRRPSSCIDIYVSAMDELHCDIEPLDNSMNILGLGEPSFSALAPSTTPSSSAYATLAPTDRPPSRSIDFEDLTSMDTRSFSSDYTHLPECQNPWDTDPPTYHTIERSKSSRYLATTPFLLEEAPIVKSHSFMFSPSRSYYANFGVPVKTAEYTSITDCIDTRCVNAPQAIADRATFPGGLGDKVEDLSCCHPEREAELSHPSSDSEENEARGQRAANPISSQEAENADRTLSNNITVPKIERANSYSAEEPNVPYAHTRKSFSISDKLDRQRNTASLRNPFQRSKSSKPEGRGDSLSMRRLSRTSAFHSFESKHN

| IC50 | SMILES |
| --- | --- |
| 1000 to 20000 nM | Cc1cc2ccc(OCc3c(F)cnn3C)cn2c1C(=O)NC(CO)CC(F)(F)F (single isomer, unassigned) [Cpd 045 - En1] |
| > 20000 nM | Cc1cc2ccc(OCc3c(F)cnn3C)cn2c1C(=O)NC(CO)CC(F)(F)F (single isomer, unassigned) [Cpd 045 - En2] |
| < 1000 nM | Cc1cc2ccc(OCc3cnccn3)cn2c1C(=O)NC1(CO)CCNC1=O (single isomer, unassigned) [Cpd 046 - En1] |
| > 20000 nM | Cc1cc2ccc(OCc3cnccn3)cn2c1C(=O)NC1(CO)CCNC1=O (single isomer, unassigned) [Cpd 046 - En2] |
| 1000 to 20000 nM | Cc1cc2ccc(OCc3scnc3C)cn2c1C(=O)NC1(CO)CCOCC1 [Cpd 001, N-[4-(hydroxymethyl)oxan-4-yl]-2-methyl-6-[(4-methyl-1,3-thiazol-5-yl)methoxy]indolizine-3-carboxamide] |
| < 1000 nM | Cc1cc2ccc(OCc3ccccc3F)cn2c1C(=O)N[C@@H](C)C(N)=O [Cpd 002, (2S)-2-({6-[(2-fluorophenyl)methoxy]-2-methylindolizin-3-yl}formamido)propanamide] |
| < 1000 nM | Cc1cc2ccc(OCc3ccccc3F)cn2c1C(=O)N[C@@H](CO)C(N)=O [Cpd 003, (2S)-2-({6-[(2-fluorophenyl)methoxy]-2-methylindolizin-3-yl}formamido)-3-hydroxypropanamide] |
| < 1000 nM | Cc1cc2ccc(OCc3ccccc3F)cn2c1C(=O)NC(C)(CO)CO [Cpd 006, N-(1,3-dihydroxy-2-methylpropan-2-yl)-6-[(2-fluorophenyl)methoxy]-2-methylindolizine-3-carboxamide] |
| 1000 to 20000 nM | Cc1cc2ccc(OCc3ccccc3F)cn2c1C(=O)NC1CNCCC1(F)F (centres unmarked) [Cpd 008, N-(4,4-difluoropiperidin-3-yl)-6-[(2-fluorophenyl)methoxy]-2-methylindolizine-3-carboxamide] |
| < 1000 nM | Cc1cc2ccc(OCc3ccccn3)cn2c1C(=O)NC(C)(CO)CO [Cpd 015, N-(1,3-dihydroxy-2-methylpropan-2-yl)-2-methyl-6-[(pyridin-2-yl)methoxy]indolizine-3-carboxamide] |
| < 1000 nM | Cc1cc2ccc(OCC3CC3)cn2c1C(=O)NC(C)(CO)CO [Cpd 020, 6-(cyclopropylmethoxy)-N-(1,3-dihydroxy-2-methylpropan-2-yl)-2-methylindolizine-3-carboxamide] |
| 1000 to 20000 nM | Cc1cc2ccc(OCC(F)F)cn2c1C(=O)NC(C)(CO)CO [Cpd 025, 6-(2,2-difluoroethoxy)-N-(1,3-dihydroxy-2-methylpropan-2-yl)-2-methylindolizine-3-carboxamide] |
| < 1000 nM | Cc1ncc(COc2ccc3cc(C)c(C(=O)NC(C)(CO)CO)n3c2)s1 [Cpd 030, N-(1,3-dihydroxy-2-methylpropan-2-yl)-2-methyl-6-[(2-methyl-1,3-thiazol-5-yl)methoxy]indolizine-3-carboxamide] |
| 1000 to 20000 nM | Cc1ncc(COc2ccc3cc(C)c(C(=O)NC(C)C(N)=O)n3c2)s1 (centres unmarked) [Cpd 031, 2-({2-methyl-6-[(2-methyl-1,3-thiazol-5-yl)methoxy]indolizin-3-yl}formamido)propanamide] |
